Among the data in PubChem BioAssay (NCI) are TGI values, retold here.

Among the test systems are 786-0 renal; OVCAR-4 ovarian; MOLT-4 leukemia; SK-MEL-5 melanoma; SF-539 CNS; MDA-MB-231 breast; NCI-H460 lung; NCI/ADR-RES ovarian; HL-60(TB) leukemia; ACHN renal; CAKI-1 renal; MDA-N.
Test in all cases: NCI anticancer screen, dose series, 48 h

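Exposure lasted 48 hours, with cells grown in 96-well plates and compounds tested at five concentrations. TGI denotes the concentration required for complete inhibition of growth.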

For `COc1ccc(/C=C/C(=O)c2ccc(Br)cc2)cc1`, the TGI in the experiment with 786-0 renal, in the experiment with OVCAR-4 ovarian, in the experiment on MOLT-4 leukemia, with SK-MEL-5 melanoma, with SF-539 CNS and in the experiment on MDA-MB-231 breast was more than 100 µM in each case. Also, the TGI in the experiment on NCI-H460 lung, in the experiment on NCI/ADR-RES ovarian, with HL-60(TB) leukemia, in the experiment with ACHN renal, in the experiment with CAKI-1 renal and with MDA-N was more than 100 µM in each case.

`C=C1CCOC2(C(O)C(C)(O)CO)NC(=O)C1(O)NC2=O` (stereo not given): the TGI in the experiment with 786-0 renal, in the experiment with OVCAR-4 ovarian, with MOLT-4 leukemia, with SK-MEL-5 melanoma, in the experiment with SF-539 CNS and in the experiment on MDA-MB-231 breast was more than 100 µM throughout. Also, the TGI in the experiment with NCI-H460 lung, in the experiment with NCI/ADR-RES ovarian, with HL-60(TB) leukemia, in the experiment on ACHN renal, in the experiment on CAKI-1 renal and in the experiment on MDA-N was more than 100 µM each time.

For `O=C(O)c1nn(-c2ccccc2)nc1-c1nn(-c2ccccc2)nc1C(=O)O`, the TGI with 786-0 renal, in the experiment on OVCAR-4 ovarian, in the experiment with MOLT-4 leukemia, in the experiment on SK-MEL-5 melanoma, in the experiment on SF-539 CNS and in the experiment with MDA-MB-231 breast was more than 100 µM throughout. In addition, the TGI in the experiment on NCI-H460 lung, in the experiment on NCI/ADR-RES ovarian, in the experiment on HL-60(TB) leukemia, with ACHN renal, with CAKI-1 renal and with MDA-N was more than 100 µM in each case.

For the molecule `CCCN(CCC)C(=O)c1c(N2CCN(C)CC2)c2cccnc2n2c(C)cnc12`, the TGI in the experiment on 786-0 renal, with OVCAR-4 ovarian, in the experiment on MOLT-4 leukemia, with SK-MEL-5 melanoma, in the experiment on SF-539 CNS and in the experiment on MDA-MB-231 breast was more than 100 µM in each case. Besides, the TGI in the experiment with NCI-H460 lung, in the experiment with NCI/ADR-RES ovarian, in the experiment with HL-60(TB) leukemia, with ACHN renal, in the experiment with CAKI-1 renal and in the experiment with MDA-N was more than 100 µM throughout.

As for `CSc1ncc2c(n1)-c1ccccc1OC2`, the TGI in the experiment on 786-0 renal, with OVCAR-4 ovarian, with MOLT-4 leukemia, in the experiment with SK-MEL-5 melanoma, in the experiment with SF-539 CNS and in the experiment on MDA-MB-231 breast was more than 100 µM in each case. The TGI with NCI-H460 lung was more than 100 µM; in the experiment on NCI/ADR-RES ovarian, more than 100 µM; in the experiment with HL-60(TB) leukemia, more than 100 µM; in the experiment with ACHN renal, more than 100 µM; in the experiment on CAKI-1 renal, 84.7 µM; in the experiment on MDA-N, more than 100 µM.

As to `O=C(NC1C/C(=N/O)c2c(Br)sc(Br)c21)C(F)(F)F` (stereo not given), the TGI is 40.4 µM in the experiment on 786-0 renal; 43.7 µM in the experiment on OVCAR-4 ovarian; more than 100 µM in the experiment with MOLT-4 leukemia; 54.4 µM in the experiment with SK-MEL-5 melanoma; 38.9 µM in the experiment with SF-539 CNS; 30.9 µM in the experiment on MDA-MB-231 breast. Also, the TGI in the experiment on NCI-H460 lung was 97.2 µM; with NCI/ADR-RES ovarian, 88.6 µM; in the experiment with HL-60(TB) leukemia, more than 100 µM; in the experiment on ACHN renal, more than 100 µM; with CAKI-1 renal, 58 µM; in the experiment with MDA-N, more than 100 µM.

For the molecule `CCOS(=O)(=O)c1ccc(-c2c3nc(c(-c4ccc(S(=O)(=O)OCC)cc4)c4ccc([nH]4)c(-c4ccc(S(=O)(=O)OCC)cc4)c4nc(c(-c5ccc(S(=O)(=O)OCC)cc5)c5ccc2[nH]5)C=C4)C=C3)cc1`, the TGI with 786-0 renal, with OVCAR-4 ovarian, in the experiment on MOLT-4 leukemia, in the experiment with SK-MEL-5 melanoma, in the experiment on SF-539 CNS and in the experiment on MDA-MB-231 breast was more than 31.6 µM in each case. Besides, the TGI in the experiment with NCI-H460 lung, in the experiment on NCI/ADR-RES ovarian, with HL-60(TB) leukemia, with ACHN renal, with CAKI-1 renal and in the experiment on MDA-N was more than 31.6 µM each time.

Regarding `C(=N\NC1=NCCN1)/c1ccc2ccccc2c1`, the TGI worked out at 26.3 µM in the experiment with 786-0 renal; 54.3 µM in the experiment on OVCAR-4 ovarian; 42.8 µM in the experiment with MOLT-4 leukemia; 25.9 µM with SK-MEL-5 melanoma; 39.4 µM in the experiment on SF-539 CNS; 35.3 µM with MDA-MB-231 breast. For the same molecule, the TGI amounted to 29.5 µM in the experiment on NCI-H460 lung; 39.4 µM in the experiment with NCI/ADR-RES ovarian; 34.5 µM with HL-60(TB) leukemia; 33.7 µM with ACHN renal; 28 µM in the experiment on CAKI-1 renal; 27.9 µM with MDA-N.

Take `COC(=O)c1ccccc1C1CN=NC12Cc1ccc3c(c1C2=O)CCC3` (stereo not given): the TGI in the experiment with 786-0 renal, in the experiment with OVCAR-4 ovarian, in the experiment with MOLT-4 leukemia, in the experiment with SK-MEL-5 melanoma, with SF-539 CNS and in the experiment on MDA-MB-231 breast was more than 100 µM each time. For the same molecule, the TGI in the experiment with NCI-H460 lung, with NCI/ADR-RES ovarian, in the experiment on HL-60(TB) leukemia, in the experiment on ACHN renal, with CAKI-1 renal and in the experiment with MDA-N was more than 100 µM throughout.

`COc1ccc(N2C(=O)/C(=C/c3ccc(N(CCC#N)CCC#N)cc3)N=C2c2ccccc2)cc1`: the TGI in the experiment on 786-0 renal, in the experiment with OVCAR-4 ovarian, with MOLT-4 leukemia, in the experiment on SK-MEL-5 melanoma, in the experiment with SF-539 CNS and with MDA-MB-231 breast was more than 100 µM each time. For the same molecule, the TGI in the experiment on NCI-H460 lung, in the experiment with NCI/ADR-RES ovarian, with HL-60(TB) leukemia, with ACHN renal, with CAKI-1 renal and with MDA-N was more than 100 µM throughout.

Regarding `O=C1Nc2ccc(Br)cc2/C1=N/N1C(=O)C(=O)N(C2CCCCC2)C1=S`, the TGI in the experiment with 786-0 renal worked out at 18.4 µM; in the experiment with OVCAR-4 ovarian, 22.6 µM; in the experiment on MOLT-4 leukemia, 16.5 µM; with SK-MEL-5 melanoma it was 16.7 µM; with SF-539 CNS, 18.3 µM; in the experiment on MDA-MB-231 breast, 25.5 µM. In addition, the TGI in the experiment with NCI-H460 lung was found to be 15.7 µM; with NCI/ADR-RES ovarian, 13.5 µM; in the experiment with HL-60(TB) leukemia it was 7.23 µM; in the experiment on ACHN renal it was 16.7 µM; with CAKI-1 renal, 12.3 µM; with MDA-N it was 7.56 µM.

Take `O=C1CC(c2ccccc2)n2c(nc3ccccc32)N1` (stereo not given): the TGI was more than 100 µM with 786-0 renal; more than 100 µM in the experiment with OVCAR-4 ovarian; more than 100 µM in the experiment on MOLT-4 leukemia; 42.8 µM in the experiment with SK-MEL-5 melanoma; more than 100 µM with SF-539 CNS; more than 100 µM with MDA-MB-231 breast. Besides, the TGI with NCI-H460 lung, in the experiment on NCI/ADR-RES ovarian, with HL-60(TB) leukemia, with ACHN renal, in the experiment on CAKI-1 renal and in the experiment with MDA-N was more than 100 µM throughout.

In the case of `Cc1[nH]c2nccn2c(=O)c1CCO`, the TGI in the experiment with 786-0 renal, with OVCAR-4 ovarian, in the experiment with MOLT-4 leukemia, with SK-MEL-5 melanoma, in the experiment on SF-539 CNS and in the experiment on MDA-MB-231 breast was more than 10 µM each time. In addition, the TGI with NCI-H460 lung, in the experiment with NCI/ADR-RES ovarian, in the experiment on HL-60(TB) leukemia, in the experiment on ACHN renal, in the experiment with CAKI-1 renal and with MDA-N was more than 10 µM each time.

In the case of `Cn1cc2c3ccccc3nc-2c2ccccc21`, the TGI in the experiment with 786-0 renal was found to be 11.1 µM; with OVCAR-4 ovarian, 5.25 µM; in the experiment on MOLT-4 leukemia it was 2.74 µM; with SK-MEL-5 melanoma, 3.64 µM; in the experiment on SF-539 CNS it was 3.66 µM; with MDA-MB-231 breast, 5.73 µM. Further, the TGI is 4.34 µM in the experiment with NCI-H460 lung; 4.24 µM in the experiment on NCI/ADR-RES ovarian; 4.48 µM with HL-60(TB) leukemia; 5.81 µM in the experiment on ACHN renal; 7.79 µM with CAKI-1 renal; 5.95 µM in the experiment on MDA-N.

Take `COc1cc(/C=C/C(=N\NC(N)=S)c2sc(NNC(C)=O)nc2C)ccc1O`: the TGI in the experiment on 786-0 renal, in the experiment on OVCAR-4 ovarian, in the experiment with MOLT-4 leukemia, in the experiment with SK-MEL-5 melanoma, with SF-539 CNS and in the experiment on MDA-MB-231 breast was more than 100 µM throughout. Further, the TGI in the experiment with NCI-H460 lung, with NCI/ADR-RES ovarian, in the experiment with HL-60(TB) leukemia, in the experiment on ACHN renal, in the experiment on CAKI-1 renal and with MDA-N was more than 100 µM throughout.
